≈ marks a conversion by molar mass, not a printed value. Like-named read-outs stand apart in the source and are kept apart here.
Experiments:
M. abs = experiment: MIC against M. abs; type: cell-based, Mycobacterium abscessus; settings: Mycobacteroides abscessus, read-out: M. abs MIC
M. avium = experiment: MIC against M. avium; type: cell-based; settings: Mycobacterium avium, read-out: M. avium MIC
M. tb V4207/DS = experiment: microbe, parasite or virus in culture; type: cell-based; settings: Mycobacterium tuberculosis, read-out: M. tb MIC V4207/DS
Vero cells = experiment: Cytotoxicity on Vero cells; type: cell-based; settings: for SI (selectivity index): SI = IC50(Vero)/MIC
[1] = Chlorocebus sabaeus, Vero, read-out: IC50 Vero cells, cytotoxicity, Vero cells
[2] = read-out: IC50 Vero cells, cytotoxicity, Vero cells

SMILES: O=C(Nc1nc(-c2ccc(Cl)cc2Cl)cs1)C12CC3CC(CC(C3)C1)C2 [18b, N-(4-(2,4-Dichlorophenyl)thiazol-2-yl)adamantane-1-carboxamide]
- MIC (M. abs): > 157 µM
- MIC (M. avium): > 157 µM
- MIC (M. tb V4207/DS): 9.82 µM (≈ 4 µg/mL)
- IC50 (Vero cells; [1]): 9.82 to 39.9 µM
- SI (selectivity index) (Vero cells): 1
- IC50 (Vero cells; [2]): 9.82 µM

SMILES: O=C(NC12CC3CC(CC(C3)C1)C2)c1ccc2ccccc2c1 [13d, N-(1-Adamantanyl)-2-naphthamide]
- MIC (M. abs): > 209 µM
- MIC (M. avium): > 209 µM
- MIC (M. tb V4207/DS): 6.55 to 13.1 µM (≈ 2 to 4 µg/mL)
- IC50 (Vero cells; [1]): ≥ 227 µM
- SI (selectivity index) (Vero cells): ≥64
- IC50 (Vero cells; [2]): ≥ 419 µM

SMILES: O=C(NC12CC3CC(CC(C3)C1)C2)c1cc(=O)c2c(Br)cccc2[nH]1 [8i, N-(1-Adamantanyl)-5-bromo-4-oxo-1,4-dihydroquinoline-2-carboxamide]
- MIC (M. abs): > 159 µM
- MIC (M. avium): > 159 µM
- MIC (M. tb V4207/DS): 9.97 µM (≈ 4 µg/mL)
- SI (selectivity index) (Vero cells): 4

SMILES: O=C(NC1CCCCCCC1)c1ccc2ccccc2c1 [13c, N-Cyclooctyl-2-naphthamide]
- MIC (M. abs): > 227 µM
- MIC (M. avium): > 227 µM
- MIC (M. tb V4207/DS): 7.11 µM (≈ 2 µg/mL)
- IC50 (Vero cells; [1]): ≥ 227 µM
- SI (selectivity index) (Vero cells): ≥32
